Experimental findings from PMC10945480 (Journal of Medicinal Chemistry, 2024) are described below.

A value given as a limit tells only on which side of the number the result lay.

Data set [1] concerns washed human platelets. The data set is described as follows: U46619-induced platelet aggregation. The format is cell-based. To be noted: Platelet; washed human platelets, U46619 (1 μM). On the procedure:
(§1) The antiplatelet effects of the JUG derivatives were evaluated by measuring human platelet aggregation, which can be regulated by cell surface PDI. Platelet aggregation was induced with platelet activators U46619 (a mimetic of thromboxane A2) and collagen (binding to GPVI).
(§2) Washed human platelets were prepared from acid citrate dextrose-anticoagulated blood of healthy human volunteers as described previously.[73] The study was approved by the Institutional Review Board of Kaohsiung Medical University, and informed consent was obtained from every volunteer. Platelet aggregation was measured by using a turbidimetric aggregometer (Chrono-Log Co., USA) under stirring conditions (1200 rpm) at 37 °C. The extent of platelet aggregation was measured as the maximal increase of light transmission after the addition of the stimulators U46619 and collagen.[73] In the TCIPA assay, platelet aggregation was induced by A549 (1 × 10^4 cells/mL), MDA-MB-231 (1 × 10^2 cells/mL), or RPMI8226 (1 × 10^5 cells/mL) cancer cells in the presence of 0.375% plasma.[74]

The test system of data set [2] is washed human platelets. The data set is described as follows: Collagen-induced platelet aggregation. The format is cell-based. To be noted: Platelet; washed human platelets, collagen (5 μg/mL). On the procedure:
as §1, §2

Data set [3] can be described thus: Parallel artificial membrane permeability assay (PAMPA). To be noted: 50 μM, 3 h. On the procedure: 1. Parallel artificial membrane permeability assay (PAMPA). […]
evolution instruments from pION Inc. In the PAMPA assay, a set of sandwich plates consists of a 96-well microtiter donor plate at the bottom and a 96-well filter acceptor plate on the top from […]
The stock solutions of samples were prepared at 10 mM concentrations in DMSO and stored at 0 ℃ before use. Before being added to a 96-well filter plate, the stock solution was diluted first with buffer to achieve a final sample concentration of 50 μM and to reduce the DMSO concentration below 1% (v/v). Each well of the 96-well donor plate was filled with a 200 μL diluted sample solution (50 μM), and the 96-well filter acceptor plate was then wetted with a 5 μL 2% w/v dioleyoylphosphatidylcholine (DOPC) in n-dodecane and subsequently placed on the donor wells.
Immediately, the acceptor wells were filled with 200 μL of buffer solution and the PAMPA plate sandwich was sealed and incubated at 25 ℃ for 3 h. After reaching the permeation time, the PAMPA plate sandwich was separated and transferred to 96-well UV plates respectively. The amounts of drugs in both the donor and acceptor compartments were measured by comparing the experimental spectra with the UV spectrum (220∼400 nm) obtained from reference standards.

The next data set relates to glioma U87. The data set is described as follows: Cell viability, resazurin assay, U87. Conditions: Homo sapiens, 24 h, read-out: U87 IC50.
In a further data set the test system is lung cancer A549. Kind of data set: Cell viability, resazurin assay, A549. Conditions: Homo sapiens, A549, 24 h, read-out: A549 IC50.
Data set [4] has as its system multiple myeloma RPMI8226. The data set is described as follows: Cell viability, resazurin assay, RPMI8226. Conditions: for S.I. (EAhy926/RPMI8226), selectivity index: 24 h IC50 ratio; for IC50: Homo sapiens, RPMI-8226, 24 h, read-out: RPMI8226 IC50.
Procedure: (§3) Cells were maintained in a humidified incubator at 37 °C in 5% CO2, and cell viability was determined with the resazurin assay (Cayman Chemical, USA) after the incubation with compounds for indicated concentrations and times or DMSO as control.[72]
Data set [5] deals with human vascular endothelial EA.hy926 cells. The data set is described as follows: Cell viability, resazurin assay, EA.hy926. To be noted: EA.hy 926, 24 h, read-out: EAhy926 IC50.
Procedure: as §3
The test system of a further data set is breast cancer MDA-MB-231. Kind of data set: Cell viability, resazurin assay, MDA-MB-231. To be noted: Homo sapiens, MDA-MB-231, 24 h, read-out: MDA-MB-231 IC50.
Data set [6] concerns the target purified human recombinant PDI (rPDI) (Homo sapiens, UniProt P07237). Kind of data set: Recombinant PDI reductase activity (Di-E-GSSG assay). To be noted: read-out: rPDI IC50; human recombinant PDI, Di-E-GSSG, 5 μM DTT.
Procedure: (§4) In this assay, a nonfluorescent substrate, dieosin glutathione disulfide (Di-E-GSSG), was reduced into a fluorescent product eosin-glutathione (E-GSH) by platelet surface PDI in the presence of 5 μM dithiothreitol (DTT).
The next data set has as its target platelet surface PDI (Homo sapiens, UniProt P07237). Kind of data set: Cell surface PDI reductase activity on intact human platelets (Di-E-GSSG assay). To be noted: read-out: Surface PDI IC50; intact human platelets, Di-E-GSSG, 5 μM DTT.
The mark [7] stands for this setting: 25 ℃, verapamil = 100%, ranitidine = 0%.

Chain of purified human recombinant PDI (rPDI) (P07237 18-508): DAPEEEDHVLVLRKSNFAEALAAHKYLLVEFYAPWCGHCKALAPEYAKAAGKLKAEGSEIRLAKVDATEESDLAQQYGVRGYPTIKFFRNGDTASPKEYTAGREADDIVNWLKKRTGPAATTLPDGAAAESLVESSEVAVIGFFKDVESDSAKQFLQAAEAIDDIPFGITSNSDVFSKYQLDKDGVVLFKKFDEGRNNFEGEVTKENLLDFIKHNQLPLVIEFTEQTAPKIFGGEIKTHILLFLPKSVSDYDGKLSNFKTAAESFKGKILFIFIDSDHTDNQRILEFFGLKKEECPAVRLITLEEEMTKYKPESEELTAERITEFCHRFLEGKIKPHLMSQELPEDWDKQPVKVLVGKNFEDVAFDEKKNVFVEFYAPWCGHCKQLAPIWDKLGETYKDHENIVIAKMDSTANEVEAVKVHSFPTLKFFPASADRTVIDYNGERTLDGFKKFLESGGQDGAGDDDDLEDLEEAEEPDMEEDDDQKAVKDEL
Chain of platelet surface PDI (P07237 18-508): as above
Procedure for breast cancer MDA-MB-231: as §3
Procedure for glioma U87: as §3
Procedure for lung cancer A549: as §3
Procedure for platelet surface PDI: as §4

In the case of `COc1cccc(SC2=CC(=O)c3cccc(O)c3C2=O)c1` [Compound 9, 2-((3-Methoxyphenyl)thio)-8-hydroxynaphthalene-1,4-dione], the 50% inhibitory concentration (IC50) was found to be 1.6 ± 0.16 µM in the data set with washed human platelets [1]; 0.38 ± 0.13 µM in the data set on washed human platelets [2]; 8.06 ± 0.48 µM in the data set with glioma U87; 13.9 ± 0.53 µM with lung cancer A549; 0.77 ± 0.05 µM in data set [4]; 6.89 ± 0.12 µM in [5]. Moreover, the results for the 50% inhibitory concentration (IC50) (in the data set with breast cancer MDA-MB-231; in data set [6]; on platelet surface PDI) were 5.57 ± 0.7 µM, 0.71 ± 0.04 µM and 0.84 ± 0.06 µM, respectively. Moreover, the “Permeability (%)” value in [3] (setting [7]) worked out at 38.9%. For the same compound, the “S.I. (EAhy926/RPMI8226), selectivity index” value in data set [4] worked out at 8.9.
On to `COc1ccc(SC2=CC(=O)c3cccc(O)c3C2=O)cc1OC` [Compound 11, 2-((3,4-Dimethoxyphenyl)thio)-8-hydroxynaphthalene-1,4-dione], for which the IC50 in the data set with washed human platelets [1] is 2.43 ± 0.3 µM; in the data set on washed human platelets [2], 1.58 ± 0.88 µM; with glioma U87 it was above 20 µM; in the data set with lung cancer A549, 12.4 ± 1.56 µM; in data set [4] it was 2.26 ± 0.07 µM; in data set [5] it was above 20 µM. Also, the IC50 with breast cancer MDA-MB-231 amounted to 38.9 ± 4.89 µM; in [6] it was 14 ± 1.67 µM; at platelet surface PDI it was 1.28 ± 0.29 µM. In data set [3] (setting [7]), the “Permeability (%)” value is 2.7%. For the same compound, the “S.I. (EAhy926/RPMI8226), selectivity index” value in [4] is above 8.8.
As to `Cc1ccc(SC2=CC(=O)c3cccc(O)c3C2=O)cc1` [Compound 12, 2-(p-Tolylthio)-8-hydroxynaphthalene-1,4-dione], the IC50 in the data set on washed human platelets [1] is 1.82 ± 0.17 µM; in the data set on washed human platelets [2], 0.76 ± 0.02 µM; with glioma U87 it was above 20 µM; with lung cancer A549, above 100 µM; in data set [4], 3.83 ± 0.28 µM; in data set [5], above 20 µM. Also, the results for the IC50 (with breast cancer MDA-MB-231; in data set [6]; at platelet surface PDI) were 25.2 ± 2.58 µM, 3.45 ± 0.18 µM and 1.84 ± 0.05 µM, respectively. Further, the “Permeability (%)” value in [3] stood at 0.1%. Further, the “S.I. (EAhy926/RPMI8226), selectivity index” value in [4] was above 5.2.
As to `CC(C)(C)c1ccc(SC2=CC(=O)c3cccc(O)c3C2=O)cc1` [Compound 13, 2-((4-(tert-Butyl)phenyl)thio)-8-hydroxynaphthalene-1,4-dione], the IC50 is 1.85 ± 0.17 µM with washed human platelets [1]; 0.64 ± 0.05 µM in the data set with washed human platelets [2]; above 20 µM with glioma U87; above 100 µM in the data set on lung cancer A549; 3.5 ± 0.26 µM in data set [4]; above 20 µM in [5]. In addition, the half-inhibitory concentration (IC50) in the data set with breast cancer MDA-MB-231 was determined as 15.1 ± 1.48 µM; in [6] it was 1.29 ± 0.3 µM; on platelet surface PDI, 1.5 ± 0.05 µM. For the same compound, the “Permeability (%)” value in data set [3] (setting [7]) turned out to be 8.5%. The “S.I. (EAhy926/RPMI8226), selectivity index” value in data set [4] is recorded as above 5.7.
Take `O=C1C=C(Sc2ccc(F)cc2)C(=O)c2c(O)cccc21` [Compound 15, 2-((4-Fluorophenyl)thio)-8-hydroxynaphthalene-1,4-dione]: the IC50 is 1.88 ± 0.18 µM in the data set with washed human platelets [1]; 0.83 ± 0.11 µM in the data set with washed human platelets [2]; 17.3 ± 0.68 µM in the data set with glioma U87; 38.3 ± 2.65 µM in the data set with lung cancer A549; 2.59 ± 0.25 µM in data set [4]; above 20 µM in data set [5]. For the same compound, the IC50 amounted to 10.6 ± 0.85 µM in the data set on breast cancer MDA-MB-231, 1.16 ± 0.47 µM in [6] and 1.67 ± 0.15 µM at platelet surface PDI. In addition, the “Permeability (%)” value in [3] (setting [7]) amounted to 85.4%. The “S.I. (EAhy926/RPMI8226), selectivity index” value in [4] was above 7.7.
Regarding `O=C1C=C(Br)C(=O)c2c(O)cccc21` [Compound 17, 2-Bromo-8-hydroxynaphthalene-1,4-dione], the concentration for half-maximal inhibition (IC50) in the data set on washed human platelets [1] was 1.76 ± 0.08 µM; in the data set with washed human platelets [2], 0.52 ± 0.21 µM; with glioma U87 it was above 20 µM; in the data set on lung cancer A549, 15.3 ± 0.74 µM; in data set [4], 4.21 ± 0.43 µM; in data set [5] it was above 20 µM. In addition, the half-maximal inhibitory concentration (IC50) turned out to be 14.1 ± 0.79 µM in the data set with breast cancer MDA-MB-231, 1.99 ± 0.63 µM in data set [6] and 1.13 ± 0.25 µM on platelet surface PDI. For the same compound, the “Permeability (%)” value in [3] (setting [7]) amounted to 16.9%. Besides, the “S.I. (EAhy926/RPMI8226), selectivity index” value in data set [4] is recorded as above 4.8.
